Assay results: US11279678B2 (SHANGHAI ECUST BIOMEDICINE CO., LTD., priority 2017, dated 2022)
Read-outs that look alike come from different tables or passages of the source.

Experiments:
[1] = test system: Hela cervical cancer cell line; test: In vitro proliferation inhibition of Hela cervical cancer cell line (MTT method); type: cell-based; conditions: for IC50: Hela cervical cancer cell line
Method: Evaluation of In Vitro Antitumor Activity of Hela Cervical Cancer Tumor Cell Lines with Compounds (MTT Method)
The cells were cultured in RPMI1640 medium containing 200 mL/L fetal bovine serum so that the cells were kept at logarithmic growth. The cells were inoculated to 96-well plate, with a density of 4˜8×10^4/ml, 37° C., and pre-cultured for 24 hours with added drugs. The drugs were set at 6 concentrations, each has 3 holes. After 48 hours of consequent effect, the nutrient solution was then removed and the cells were left for air-drying. Each hole was then added with cold 500 g/L trichloroacetic acid (TCA) 50 μL (final concentration of 100 g/L). After setting for 60 minutes, it was then rinsed for 4-5 times with ionized water and dried. Each hole then was added with 4 g/L SRB 100 μL left for 30 mins. Then it was rinsed with 10 mL/L acetic acid for 4 times, dried. Then 10 mmol Tris-base 200 μL per hole was added, then shaked and mixed, subsequently, oscillating on the plate oscillator for 5 min. The enzyme-linked immunoassay was used to determine the A value. To calibrate, a blank control was used, with a wavelength of 490 nm. Tumor inhibition rate (%)=(Average A value of the control cell hole−Average A value of the drugged hole A)/Average A value of the control cell hole×100%. The positive control cell holes were CA4, CB1, and CB1N. To calculate the IC50 value, the Logit method was used according to the cell growth inhibition rate of different concentrations of the drug.

[2] = test system: human gastric cancer cell MGC-803; test: In vitro antitumor activity on tumor cell lines (CCK-8 method), MGC-803; type: cell-based; conditions: MGC-803, 72 hours
Method: (§1) Evaluation of In Vitro Antitumor Activity of Compounds on Multiple Tumor Cell Lines (CCK-8 Method)
(§2) Take the living cells with more than 90% cells for testing. The cell proliferation inhibition test was performed using the EnoGeneCell™ Counting Kit-8 (CK-8) cell viability test kit. The cell was digested, counted and prepared into a cell suspension with a concentration of 1×10^5/mL. 100 μL cell suspension (1×10^4 cells per hole) was added to each hole in the 96-well plate. The 96-well plate was cultured in a 37° C., 5% CO2 incubator for 24 hours. With every hole added with 100 μL respective drugged cultured medium, control groups were set up, including negative control group, solvent control group, and positive control group. Each group has 5 holes. The 96-well plates were cultured at 37° C., in 5% CO2 incubator for 72 hours. Afterward, 10 μL CCK-8 solution was added to each hole, and the culture plate was incubated in the incubator for 4 hours, and the OD value at 450 nm was determined by enzyme labeling instrument. The inhibition rate and IC50 value of these compounds on tumor cells such as human gastric cancer cell MGC-803, human liver cancer cell HepG2, human lung cancer cell A549 and human breast cancer cell MDA-MB-231 were calculated.

[3] = test system: human liver cancer cell HepG2; test: In vitro antitumor activity on tumor cell lines (CCK-8 method), HepG2; type: cell-based; conditions: HepG2, 72 hours
Method: as §1, §2

[4] = test system: human lung cancer cell A549; test: In vitro antitumor activity on tumor cell lines (CCK-8 method), A549; type: cell-based; conditions: A549, 72 hours
Method: as §1, §2

[5] = test system: human breast cancer cell MDA-MB-231; test: In vitro antitumor activity on tumor cell lines (CCK-8 method), MDA-MB-231; type: cell-based; conditions: MDA-MB-231, 72 hours
Method: as §1, §2

in vivo = conditions: both, Kunming, mouse, po
Method: (§3) Acute Toxicity Test of Single Gastric Administration in Mice
(§4) Kunming mice (weight 17-22 g, equal male and female) were randomly grouped according to body weight, with 10 mice maximum per dose group in the experiment. […] Given by single intraperitoneal injection and a single intragastric injection, observations were done after 0.25 h, 0.5 h, 1 h, 2 h, 4 h, and 24 h respectively. The mortality rate was recorded. Afterward, the groups were observed once everyday, and the mortality rate was recorded for 14 days. On day 15, the living mice were sacrificed for pathological dissection.

[6] = test system: gastric cancer MGC-803 transplanted tumor; test: Antitumor rate of oral administration in mice with MGC-803 transplanted tumor; type: in vivo; conditions: for Tumor inhibition rate (%): d0-d12 every 2 days, 7 times, tumor weight; for tumor size course: about 8 days after administration
Method: Antitumor rate of oral administration of the compound towards MGC-803 mice with transplanted tumor
After 1 week of adaptation, the mice were inoculated with gastric cancer MGC-803 tumor tissue subcutaneously. After the tumor grew for 100-300 mm^3, the animals were randomly grouped. For the drug group, each group of each compound had 6 mice, and 12 mice were in the control group. The intragastric administration was employed and the dosage of Ii, Ij, Ik and Il was 25 and 50 mg/kg. The positive control was CA4, the administration time was d0, d2, d4, d6, d8, d10, d12 days, 7 times in total. The tumor size was measured 3 times per week, together with mice weight. The mice were executed 14 days after inoculation and the tumor mass was taken and measured for its weight. The tumor inhibition rate was calculated as tumor weight inhibition rate, and the formula is tumor weight inhibition rate %=(1-treatment group average tumor weight/control group average tumor weight)×100%.

[7] = single intragastric administration, mice
Method: as §3, §4

[8] = Homo sapiens, 48 hours drug exposure, read-out: IC50
[9] = Homo sapiens, read-out: IC50 values, Hela proliferation inhibition
[10] = 48 hours drug exposure, read-out: IC50

SMILES | IC50 [1, 8] [µM] | IC50 ([2]; Homo sapiens) [µM] | IC50 ([3]; Homo sapiens) [µM] | IC50 ([4]; Homo sapiens) [µM] | IC50 ([5]; Homo sapiens) [µM] | further results
COc1ccc(/C=C\c2cc(OC)c(OC)c(OC)c2)cc1O [CA4, combretastatin A-4, reference compound] | 0.4 | 0.0206 | 1280 | 0.00254 | 0.0033 | IC50 [1, 9]: 0.4 µM; LD50 (in vivo): 1280 mg/kg
O=c1[nH]cc(F)c(=O)[nH]1 [Compound 5-FU, 5-fluorouracil, reference compound] | 0.113 | 62.5 | 0.004 | 34.9 | 97 | IC50 [1, 9]: 0.113 µM
COc1ccc(/C=C\c2cc(OC)c(OC)c(OC)c2)cc1NC(=O)Cn1cc(F)c(=O)[nH]c1=O [Compound Ia, (Z)-2-(5-fluoro-2,4-dioxo-3,4-dihydropyrimidin-1(2H)-yl)-N-(2-methoxy-5-(3,4,5-trimethoxystyryl)-phenyl)acetamide] | 0.046 | 64.2 | 0.0124 | 27.5 | 112 | –
COc1ccc(CCc2cc(OC)c(OC)c(OC)c2)cc1NC(=O)Cn1cc(F)c(=O)[nH]c1=O [Compound Ib, 2-(5-fluoro-2,4-dioxo-3,4-dihydropyrimidin-1(2H)-yl)-N-(5-(3,4,5-trimethoxyphenethyl)-2-methoxyphenyl)-acetamide] | 0.0291 | 1.86 | < 0.19 | < 0.19 | 3.21 | –
COc1ccc(C=Cc2cc(OC)c(OC)c(OC)c2)cc1NC(=O)CCn1cc(F)c(=O)[nH]c1=O [Compound Ic, 3-(5-fluoro-2,4-dioxo-3,4-dihydropyrimidin-1(2H)-yl)-N-(5-(3,4,5-trimethoxystyryl)-2-methoxyphenyl)-propanamide] | 0.029 | 48.5 | 150 | 57.9 | 122 | proliferation inhibitory activity on Hela compared to 5-fluorouracil ([1]; ratio to 5-fluorouracil): 4 times; proliferation inhibitory activity on Hela compared to CA4 ([1]; ratio to CA4): 14 times
COc1ccc(CCc2cc(OC)c(OC)c(OC)c2)cc1NC(=O)CCn1cc(F)c(=O)[nH]c1=O [Compound Id, 3-(5-fluoro-2,4-dioxo-3,4-dihydropyrimidin-1(2H)-yl) N-(5-(3,4,5-trimethoxyphenethyl)-2-methoxyphenyl)-propanamide] | – | – | – | – | – | IC50 [1, 10]: 0.0298 µM; IC50 [2]: 50.6 µM; IC50 [3]: 110 µM; IC50 [4]: 38 µM; IC50 [5]: 70.2 µM
COc1ccc(C=Cc2cc(OC)c(OC)c(OC)c2)cc1NC(=O)CCCn1cc(F)c(=O)[nH]c1=O [Compound Ie, 4-(5-fluoro-2,4-dioxo-3,4-dihydropyrimidin-1(2H)-yl)-N-(5-(3,4,5-trimethoxystyryl)-2-methoxyphenyl)-butanamide] | 0.0688 | – | – | – | – | –
COc1ccc(CCc2cc(OC)c(OC)c(OC)c2)cc1NC(=O)CCCn1cc(F)c(=O)[nH]c1=O [Compound If, 4-(5-fluoro-2,4-dioxo-3,4-dihydropyrimidin-1(2H)-yl)-N-(5-(3,4,5-trimethoxyphenethyl)-2-methoxyphenyl)-butanamide] | 0.0288 | – | – | – | – | –
CCOc1ccc(CCc2cc(OC)c(OC)c(OC)c2)cc1NC(=O)Cn1cc(F)c(=O)[nH]c1=O [Compound Ig, N-(5-(3,4,5-trimethoxyphenethyl)-2-ethoxyphenyl)-2-(5-fluoro-2,4-dioxo-3,4-dihydropyrimidin-1(2H)-yl)acetamide] | 0.0471 | 25.8 | 39.4 | 59.9 | 60.2 | –
CCOc1ccc(CCc2cc(OC)c(OC)c(OC)c2)cc1NC(=O)CCn1cc(F)c(=O)[nH]c1=O [Compound Ih, N-(5-(3,4,5-trimethoxyphenethyl)-2-ethoxyphenyl)-3-(5-fluoro-2,4-dioxo-3,4-dihydropyrimidin-1(2H)-yl)propanamide] | > 0.37 | 23.2 | 171 | 15.2 | 60.6 | –
COc1ccc(/C=C\c2cc(OC)c(OC)c(OC)c2)cc1OC(=O)Cn1cc(F)c(=O)[nH]c1=O [Compound Ii, (Z)-2-methoxy-5-(3,4,5-trimethoxystyryl)-phenyl-2-(5-fluoro-2,4-dioxo-3,4-dihydropyrimidin-1(2H)-yl)acetate] | – | – | – | – | – | IC50 [1, 10]: 0.0314 µM; IC50 [2]: < 0.0003 µM; IC50 [3]: 0.0228 µM; IC50 [4]: < 0.0003 µM; IC50 [5]: 0.4 µM; Tumor inhibition rate (%) ([6]; 25 mg/kg intragastric): 62%; Tumor inhibition rate (%) ([6]; 50 mg/kg intragastric): 85%; tumor size course [6]: tendency to shrink; LD50 [7]: 1059 mg/kg
COc1ccc(CCc2cc(OC)c(OC)c(OC)c2)cc1OC(=O)Cn1cc(F)c(=O)[nH]c1=O [Compound Ij, 2-methoxy-5-(3,4,5-trimethoxyphenethyl)-phenyl-2-(5-fluoro-2,4-dioxo-3,4-dihydropyrimidin-1(2H)-yl)acetate] | – | – | – | – | – | IC50 [1, 10]: 0.0323 µM; IC50 [2]: < 0.0003 µM; IC50 [3]: 0.141 µM; IC50 [4]: < 0.0003 µM; IC50 [5]: 15.4 µM; Tumor inhibition rate (%) ([6]; 25 mg/kg intragastric): 53%; Tumor inhibition rate (%) ([6]; 50 mg/kg intragastric): 80%; tumor size course [6]: tendency to shrink; LD50 [7]: 1015 mg/kg
COc1ccc(/C=C\c2cc(OC)c(OC)c(OC)c2)cc1OC(=O)CCn1cc(F)c(=O)[nH]c1=O [Compound Ik, (Z)-5-(3,4,5-trimethoxystyryl)-2-methoxyphenyl-3-(5-fluoro-2,4-dioxo-3,4-dihydropyrimidin-1(2H)-yl)propanoate] | 0.0296 | < 0.0003 | 7.33 | < 0.0003 | 80.7 | Tumor inhibition rate (%) ([6]; 25 mg/kg intragastric): 48%; Tumor inhibition rate (%) ([6]; 50 mg/kg intragastric): 75%; tumor size course [6]: tendency to shrink; LD50 at 14 days (in vivo): > 1000 mg/kg; LD50 [7]: 1185 mg/kg
COc1ccc(/C=C\c2cc(OC)c(OC)c(OC)c2)cc1OC(=O)CCCn1cc(F)c(=O)[nH]c1=O [Compound Im, (Z)-2-methoxy-5-(3,4,5-trimethoxystyryl)-phenyl-4-(5-fluoro-2,4-dioxo-3,4-dihydropyrimidin-1(2H)-yl)butanoate] | 0.03 | – | – | – | – | –
CCOc1ccc(CCc2cc(OC)c(OC)c(OC)c2)cc1OC(=O)Cn1cc(F)c(=O)[nH]c1=O [Compound In, 5-(3,4,5-trimethoxyphenethyl)-2-ethoxyphenyl 2-(5-fluoro-2,4-dioxo-3,4-dihydropyrimidin-1(2H)-yl)acetate] | 0.04 | 19.3 | 468 | 4.26 | 102 | –
CCOc1ccc(CCc2cc(OC)c(OC)c(OC)c2)cc1OC(=O)CCn1cc(F)c(=O)[nH]c1=O [Compound Io, 5-(3,4,5-trimethoxyphenethyl)-2-ethoxyphenyl-3-(5-fluoro-2,4-dioxo-3,4-dihydropyrimidin-1(2H)-yl)propanoate] | 0.0343 | 0.609 | 0.0017 | 0.0003 | 2.57 | –
COc1ccc(CCc2cc(OC)c(OC)c(OC)c2)cc1O [Erianin, reference compound] | – | – | – | – | – | LD50 [7]: 2531 mg/kg
